Assay results as given in publication PMC9028278, “2-Pyridine Carboxaldehyde for Semi-Automated Soft Spot Identification in Cyclic Peptides” (International Journal of Molecular Sciences, 2022).
Where a SMILES comes first, the peptide text is derived from it. Bridges are numbered along the chain shown (N, C = ends).

Assay: Soft spot identification time course in dilute rat intestinal luminal contents with 2PCA derivatization
Format: in vitro ADME
Conditions: 10 µM peptide; for metabolic soft spot: most N-terminal residue of the ring-opened (singly hydrolyzed) peptide, assigned through the 2PCA tag: dilute rat intestinal luminal contents (fasted male SD rats, duodenum and jejunum), 0.02 mg/mL total protein in 5 mM pH 7.4 phosphate buffer, 37 °C, aliquots at 0, 2.5, 10, 20 min, quenched with acetonitrile containing 20 mM 2PCA, overnight at room temperature, LC-MS/MS (targeted MS/MS, AIF, background subtraction)
Description: This three-pronged approach was used to analyze two commercially available cyclic peptides, JB1 and somatostatin, in a typical soft spot identification workflow with automated sample preparation. Both JB1, a 12-mer cyclic peptide with the sequence CYAAPLKPAKSC, and somatostatin, a 14-mer cyclic peptide with the sequence AGCKNFFWKTFTSC (disulfide bound between Cys residues), were subjected to incubation in dilute rat intestinal luminal contents matrix on a liquid handling system. To facilitate unsupervised sample preparation, the enzymatic activity of the matrix was quenched with 1 volume of acetonitrile containing 20 mM 2PCA and incubated overnight. The following day, the samples were injected into the MS for analysis directly with the approach outlined in Figure 3. To increase the throughput and proportion of ‘hands-off’ time, the derivatization step was not quenched, and excess reagent or Schiff bases formed during the incubation were not scavenged by hydrazide (as was performed during the selectivity experiments on the tryptic HeLa lysate). While omitting the hydrazide scavenging step could introduce a decrease in sensitivity due to Schiff base formation on basic sites, the concentrations typically used in in vitro incubations ensure that minor decreases in sensitivity will not have deleterious effects on the workflow as a whole. In this case, the liquid handler utilized was unable to manipulate magnetic beads, but future experiments will incorporate a magnetic-bead-compatible liquid handler to incorporate the scavenging step. The method described has the potential to create more than one 2PCA adduct on a given peptide with basic sites, but the utilization of a targeted approach for the singly modified peptide as outlined here circumvents that complication and ensures MS/MS sampling of the peptide of interest.
HeLa S9 lysate tryptic digest was purchased from ThermoFisher (San Jose, CA, USA). […]
The flushed intestinal luminal contents from fasted rats were pooled and the concentration of protein was determined. […]

| SMILES | metabolic soft spot: most N-terminal residue of the ring-opened (singly hydrolyzed) peptide, assigned through the 2PCA tag | secondary metabolite (subsequent hydrolysis step after ring opening) (dilute rat intestinal luminal contents, 0.02 mg/mL protein, pH 7.4, 37 °C, 10 min time point, background subtracted AIF XIC of m/z 107.0609) |
| --- | --- | --- |
| CC(C)C[C@@H]1NC(=O)[C@@H]2CCCN2C(=O)[C@H](C)NC(=O)[C@H](C)NC(=O)[C@H](Cc2ccc(O)cc2)NC(=O)[C@@H](N)CSSC[C@@H](C(=O)O)NC(=O)[C@H](CO)NC(=O)[C@H](CCCCN)NC(=O)[C@H](C)NC(=O)[C@@H]2CCCN2C(=O)[C@H](CCCCN)NC1=O [JB1] (H-CYAAPLKPAKSC-OH; disulfide 1-12) | serine | clipping of the C-terminal Lysine residue |
| C[C@H](N)C(=O)NCC(=O)N[C@H]1CSSC[C@@H](C(=O)O)NC(=O)[C@H](CO)NC(=O)[C@H]([C@@H](C)O)NC(=O)[C@H](Cc2ccccc2)NC(=O)[C@H]([C@@H](C)O)NC(=O)[C@H](CCCCN)NC(=O)[C@H](Cc2c[nH]c3ccccc23)NC(=O)[C@H](Cc2ccccc2)NC(=O)[C@H](Cc2ccccc2)NC(=O)[C@H](CC(N)=O)NC(=O)[C@H](CCCCN)NC1=O [somatostatin] | first threonine (followed by phenylalanine) | – |
